Experimental data: US20060235013A1, “Tricyclic azole derivatives” (priority 2005, published 2006)

Legend:
Aurora A kinase = biological target: T1, Aurora A kinase (Homo sapiens, UniProt O14965); assay: IC50 determination for inhibitors of Aurora A (ELISA-type kinase assay, GST-Histone H3 substrate); format: biochemical; conditions: mutant Aurora A kinase, 30 μM ATP, 40 minutes, read-out: IC50 Aurora A kinase inhibition
T1 sequence (O14965 1-403): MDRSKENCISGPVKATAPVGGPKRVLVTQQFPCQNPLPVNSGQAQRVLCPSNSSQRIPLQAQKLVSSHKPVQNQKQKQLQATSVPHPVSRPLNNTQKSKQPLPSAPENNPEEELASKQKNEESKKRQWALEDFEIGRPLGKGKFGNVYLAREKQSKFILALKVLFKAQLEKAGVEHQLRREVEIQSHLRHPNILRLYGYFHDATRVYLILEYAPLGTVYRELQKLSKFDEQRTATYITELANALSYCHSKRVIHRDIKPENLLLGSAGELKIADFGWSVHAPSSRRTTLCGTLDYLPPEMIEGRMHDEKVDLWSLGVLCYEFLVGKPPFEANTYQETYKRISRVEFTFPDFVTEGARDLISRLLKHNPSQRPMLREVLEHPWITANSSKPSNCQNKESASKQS
Procedure: IC50 Determination for Inhibitors of Aurora A
Aurora A is a serine threonine kinase involved in spindle assembly and chromosome segregation.
The assay is a typically ELISA-type assay where substrate (GST-Histone H3) is coupled to the assay-plate and is phosphorylated by the kinase. Phosphorylation is detected by a mouse anti-Phosphopeptid mAb and an HRP-labeled anti-mouse pAb. The assay is validated for IC50-determination.
Kinase activities were measured by Enzyme-Linked Immunosorbent Assay (ELISA): Maxisorp 384-well plates (Nunc) were coated with recombinant fusion protein comprising residues 1-15 of HistoneH3 fused to the N-terminus of Glutathione-S-Transferase. Plates were then blocked with a solution of 1 mg/mL I-block (a highly purified form of casein, Tropix cat. no. T2015) in phosphate-buffered saline. Kinase reactions were carried out in the wells of the ELISA plate by combining an appropriate amount of mutant Aurora A kinase with test compound and 30 μM ATP. The reaction buffer was 10× Kinase Buffer (Cell Signaling cat. no. 9802) supplemented with 1 μg/mL I-block. Reactions were stopped after 40 minutes by addition of 25 mM EDTA. After washing, substrate phosphorylation was detected by addition of anti-phospho-Histone H3 (Ser 10) 6G3 mAb (Cell Signaling cat. no. 9706) and sheep anti-mouse pAb-HRP (Amersham cat. no. NA931V), followed by colorimetric development with TMB (3,3′,5,5′-tetramethylbenzidine from Kirkegaard & Perry Laboratories). After readout of the adsorbance, IC50 values were calculated using a non-linear curve fit (XLfit software (ID Business Solution Ltd., Guilford, Surrey, UK)).

HCT 116 cells = assay: Viability assay in HCT 116 cells (CellTiter-Glo Luminescent Cell Viability Assay); format: cell-based; conditions: HCT 116 human colon carcinoma cells, 5 days (120 h) incubation, ATP luminescence
Procedure: Viability Assay in HCT 116 Cells
A viability assay was performed using the CellTiter-Glo® Luminescent Cell Viability Assay (see Promega Corporation's Technical Bulletin No. 288, pp. 1-11 [revised February 2004] which is hereby incorporated by reference in its entirety). This assay is a homogeneous method of determining the number of viable cells in culture based on quantitation of the ATP present, an indicator of metabolically active cells. The assay is designed for use with multiwell formats, making it ideal for automated high-throughput screening (HTS), cell proliferation and cytotoxicity assays. The homogenous assay procedure involves adding a single reagent (containing luciferase, luciferan substrate, and buffer) directly to cells cultured in serum-supplemented medium. Cell washing, removal of medium and multiple pipetting steps are not required. The system detects as few as 15 cells/well in a 384-well format in 10 minutes after adding reagent and mixing.
The homogeneous “add-mix-measure” format results in cell lysis and generation of a luminescent signal proportional to the amount of ATP present. The amount of ATP is directly proportional to the number of cells present in culture. The above-referenced assay generates a “glow-type” luminescent signal, produced by the luciferase reaction, which has a half-life generally greater than five hours, depending on cell type and medium used. The extended half-life eliminates the need to use reagent injectors and provides flexibility for continuous or batch mode processing of multiple plates. The unique homogeneous format avoids errors that may be introduced by other ATP measurement methods that require multiple steps.
HCT 116 cells (human colon carcinoma, ATCC-No. CCl-247) were cultivated in RPMI 1640 medium with GlutaMAX™ I (cell culture media that contains L-Alanyl-L-Glutamine [a stabilized a form/source of L-Glutamine] from Invitrogen, Cat-No. 61870-010), 2.5% Fetal Calf Serum (FCS, Sigma Cat-No. F4135 (FBS)); 100 Units/ml penicillin/100 μg/ml streptomycin (=Pen/Strep from Invitrogen Cat. No. 15140). For the assay the cells were seeded in 384 well plates, 1000 cells per well, in the same medium. The next day the test compounds were added in various concentrations ranging from 30 μM to 0.0015 μM (10 concentrations, 1:3 diluted). After 5 days the viability assay was done according to the instructions of the manufacturer. In brief: the cell-plate was equilibrated to room temperature for approximately 30 minutes and then reagent (containing luciferase, luciferan substrate, and buffer) was added. The contents were carefully mixed for 15 minutes to induce cell lysis. After 45 minutes the luminescent signal was measured in Victor 2, (scanning multiwell spectrophotometer, Wallac).
Medium: RPMI 1640 with cell culture media containing L-Alanyl-L-Glutamine [GlutaMAX™ I (Invitrogen, Cat-No. 61870)], 5% FCS (Sigma Cat.-No. F4135), Pen/Strep (Invitrogen, Cat No. 15140).
HCT116 (ATCC-No. CCl-247): 1000 cells in 60 μl per well of 384 well plate (Greiner 781098, μClear-plate white)
After seeding incubate plates 24 h at 37° C., 5% CO2
2nd. Day: Induction (Treatment with Compounds, 10 Concentrations):
In order to achieve a final concentration of 30 μM as highest concentration 3.5 μl of 10 mM compound stock solution were added directly to 163 μl media. Then step (d) of the dilution procedure described below, was followed.
In order to achieve the second highest to the lowest concentrations, a serial dilution with dilution steps of 1:3 was followed according to the procedure (a-d) as described here below:
(a) for the second highest concentration add 10 μl of 10 mM stock solution of compound to 20 μl dimethylsulfoxide (DMSO)
(b) dilute 8×1:3 (always 10 μl to 20 μl DMSO) in this DMSO dilution row (results in 9 wells with concentrations from 3333.3 μM to 0.51 μM)
(c) dilute each concentration 1: 47.6 (3.5 μl compound dilution to 163 μl media)
(d) add 10 μl of every concentration to 60 μl media in the cell plate […]

`CCN1C(=O)C(C)(C)c2cc3nc(-c4n[nH]c5c4COCC5)[nH]c3cc21` [Example 11, 5-Ethyl-7,7-dimethyl-2-(1,4,6,7-tetrahydro-pyrano[4,3-c]pyrazol-3-yl)-5,7-dihydro-3H-imidazo[4,5-f]indol-6-one] gave an IC50 (Aurora A kinase) of 16 nM and an IC50 (HCT 116 cells) of 100 to 2000 nM.

In the case of `CCN1C(=O)C(C)(C)c2cc3nc(-c4n[nH]c5c4CN(C(=O)c4ccc(F)cc4)CC5)[nH]c3cc21` [Example 16, 5-Ethyl-2-[5-(4-fluoro-benzoyl)-4,5,6,7-tetrahydro-1H-pyrazolo[4,3-c]pyridin-3-yl]-7,7-dimethyl-5,7-dihydro-3H-imidazo[4,5-f]indol-6-one], the IC50 (Aurora A kinase) is reported as 55 nM and the IC50 (HCT 116 cells) is reported as 100 to 2000 nM.

`CCN1C(=O)C(C)(C)c2cc3nc(-c4n[nH]c5c4CN(S(=O)(=O)c4ccc(F)cc4)CC5)[nH]c3cc21` [Example 17, 5-Ethyl-2-[5-(4-fluoro-benzenesulfonyl)-4,5,6,7-tetrahydro-1H-pyrazolo[4,3-c]pyridin-3-yl]-7,7-dimethyl-5,7-dihydro-3H-imidazo[4,5-f]indol-6-one] showed an IC50 (Aurora A kinase) of 14 nM and an IC50 (HCT 116 cells) of 100 to 2000 nM.
